Experimental data reported in PMC12679472, “The structural requirements of 3,5-substituted oxindoles that determine selective AMPK or GSK3β inhibition” (RSC Medicinal Chemistry, 2025).
Read-outs that look alike come from different tables or passages of the source.

Experiments:
[1] = target: purified recombinant human GSK3β (Homo sapiens, UniProt P49841); assay: radiometric [33P]-ATP kinase activity assay, GSK3β; details: for Hill Slope: GSK3β curve fit, kinase profiling report; for HillSlope (GraphPad Prism best-fit, GSK3β) / LogEC50 (GraphPad Prism best-fit, GSK3β): sigmoidal dose-response variable slope
purified recombinant human GSK3β, sequence (P49841 whole entry): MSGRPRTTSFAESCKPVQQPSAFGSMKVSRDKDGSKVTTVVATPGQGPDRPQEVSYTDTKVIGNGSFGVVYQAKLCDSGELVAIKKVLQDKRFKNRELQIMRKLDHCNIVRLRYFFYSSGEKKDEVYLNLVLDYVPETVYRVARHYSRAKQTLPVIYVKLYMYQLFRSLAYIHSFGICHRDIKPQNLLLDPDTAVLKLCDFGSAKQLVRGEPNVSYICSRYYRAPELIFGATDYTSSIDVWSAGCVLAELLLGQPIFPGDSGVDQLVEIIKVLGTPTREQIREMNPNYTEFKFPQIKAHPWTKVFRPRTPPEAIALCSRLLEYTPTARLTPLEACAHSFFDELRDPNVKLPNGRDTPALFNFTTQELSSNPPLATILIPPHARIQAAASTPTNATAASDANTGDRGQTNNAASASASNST

[2] = target: purified recombinant human AMPK (α1β1γ1) (Homo sapiens, UniProt Q13131); assay: radiometric [33P]-ATP kinase activity assay, AMPK; format: biochemical; details: for inhibition of AMPK activity (in words): up to 10 μM; for Hill Slope: AMPK curve fit, kinase profiling report; for HillSlope (GraphPad Prism best-fit, AMPK) / LogEC50 (GraphPad Prism best-fit, AMPK): sigmoidal dose-response variable slope; for LogEC50 (GraphPad Prism best-fit, AMPK): concentration axis Log(M); for % Activity (enzyme activity relative to DMSO controls): AMPK
purified recombinant human AMPK (α1β1γ1) (Homo sapiens, UniProt Q13131), sequence (Q13131 whole entry): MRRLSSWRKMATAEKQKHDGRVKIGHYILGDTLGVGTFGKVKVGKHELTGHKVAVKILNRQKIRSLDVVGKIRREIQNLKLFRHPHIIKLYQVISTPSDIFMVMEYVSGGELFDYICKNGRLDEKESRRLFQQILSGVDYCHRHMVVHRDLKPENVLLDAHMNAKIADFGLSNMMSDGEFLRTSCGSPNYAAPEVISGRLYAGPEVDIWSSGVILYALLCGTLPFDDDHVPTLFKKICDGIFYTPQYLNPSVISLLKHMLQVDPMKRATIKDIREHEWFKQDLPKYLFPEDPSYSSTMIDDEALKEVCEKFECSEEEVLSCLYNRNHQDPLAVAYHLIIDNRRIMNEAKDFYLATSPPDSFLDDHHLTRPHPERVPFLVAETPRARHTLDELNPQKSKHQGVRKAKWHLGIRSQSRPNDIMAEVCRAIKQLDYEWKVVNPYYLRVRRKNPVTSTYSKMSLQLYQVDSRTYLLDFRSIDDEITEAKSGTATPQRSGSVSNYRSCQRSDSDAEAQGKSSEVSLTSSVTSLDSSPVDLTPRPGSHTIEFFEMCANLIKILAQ
purified recombinant human AMPK (α1β1γ1) (Homo sapiens, UniProt Q13131), sequence (Q9Y478 whole entry partner): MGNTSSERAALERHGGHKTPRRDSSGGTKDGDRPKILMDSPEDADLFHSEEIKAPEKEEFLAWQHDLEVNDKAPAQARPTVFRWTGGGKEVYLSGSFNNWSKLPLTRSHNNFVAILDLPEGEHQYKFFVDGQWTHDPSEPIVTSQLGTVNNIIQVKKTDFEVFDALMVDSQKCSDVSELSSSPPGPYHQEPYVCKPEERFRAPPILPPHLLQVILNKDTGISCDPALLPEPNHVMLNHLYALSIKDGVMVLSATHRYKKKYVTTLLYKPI
purified recombinant human AMPK (α1β1γ1) (Homo sapiens, UniProt Q13131), sequence (P54619 whole entry partner): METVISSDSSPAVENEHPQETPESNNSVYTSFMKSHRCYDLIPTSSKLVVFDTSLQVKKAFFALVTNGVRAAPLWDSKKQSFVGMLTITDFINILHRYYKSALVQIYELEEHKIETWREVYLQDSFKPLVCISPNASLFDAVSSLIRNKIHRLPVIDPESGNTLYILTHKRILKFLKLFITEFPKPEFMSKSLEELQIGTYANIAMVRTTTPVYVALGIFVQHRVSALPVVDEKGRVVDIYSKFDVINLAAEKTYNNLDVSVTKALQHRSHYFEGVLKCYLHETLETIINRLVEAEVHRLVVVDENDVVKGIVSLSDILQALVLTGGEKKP

[3] = target: purified recombinant human AMPK (α1β1γ1) (Homo sapiens, UniProt P54619+Q13131+Q9Y478); assay: radiometric [33P]-ATP kinase activity assay, AMPK; format: biochemical; details: for IC50: 10 μM [33P]-ATP; for EC50: concentration axis Log(M)
purified recombinant human AMPK (α1β1γ1) (Homo sapiens, UniProt P54619+Q13131+Q9Y478), sequence (Q13131 whole entry): as the sequence (Q13131 whole entry) above
purified recombinant human AMPK (α1β1γ1) (Homo sapiens, UniProt P54619+Q13131+Q9Y478), sequence (Q9Y478 whole entry partner): as the sequence (Q9Y478 whole entry partner) above
purified recombinant human AMPK (α1β1γ1) (Homo sapiens, UniProt P54619+Q13131+Q9Y478), sequence (P54619 whole entry partner): as the sequence (P54619 whole entry partner) above

[4] = system: AMPK; design: method as in PMID 23410232; details: at 10 μM; cited from earlier work
[5] = system: GSK3β; design: method as in PMID 23410232; details: at 10 μM; cited from earlier work
[6] = system: cellular AMPK activity; details: cited from earlier work
[7] = 10-dose singlet, 3-fold dilutions from 10 μM, read-out: AMPK IC50

Row | SMILES | IC50 [1] [µM] | inhibition of AMPK activity (in words) ([2]; 10 μM [33P]-ATP) | IC50 [3, 7] [M] | Hill Slope [1] | HillSlope (GraphPad Prism best-fit, GSK3β) [1] | Hill Slope [2] | other results
1 | N#CCCc1ccc2c(c1)C(=Cc1ccc(CN3CCOCC3)cc1)C(=O)N2 (mixture of isomers) [Compound 7, (E/Z)-5-(2-Cyanoethyl)-3-(4-(morpholinomethyl)benzylidene)oxindole] | > 10 | did not demonstrate AMPK inhibition | > 1e-05 |  |  |  | 
2 | CN1CCN(Cc2ccc(C=C3C(=O)Nc4ccc(CCC#N)cc43)cc2)CC1 (mixture of isomers) [Compound 8, (E/Z)-5-(2-Cyanoethyl)-3-(4-((4-methylpiperazin-1-yl)methyl)benzylidene)oxindole] | > 10 | did not demonstrate AMPK inhibition | > 1e-05 |  |  |  | 
3 | N#Cc1ccc2c(c1)C(=Cc1ccc(CN3CCOCC3)cc1)C(=O)N2 (mixture of isomers) [Compound 11, (E/Z)-5-Cyano-3-(4-(morpholinomethyl)benzylidene)oxindole] | 3.37 | did not demonstrate AMPK inhibition | > 1e-05 | -0.95 | -0.9491 |  | EC50 [1]: 3.37 µM; LogEC50 (GraphPad Prism best-fit, GSK3β) [1]: -5.472
4 | CN1CCN(Cc2ccc(C=C3C(=O)Nc4ccc(C#N)cc43)cc2)CC1 (mixture of isomers) [Compound 12, (E/Z)-5-Cyano-3-(4-((4-methylpiperazin-1-yl)methyl)benzylidene)oxindole] | 8.29 | did not demonstrate AMPK inhibition | > 1e-05 | -0.95 | -0.9519 |  | EC50 [1]: 8.29 µM; LogEC50 (GraphPad Prism best-fit, GSK3β) [1]: -5.082
5 | N#Cc1ccc2[nH]c(O)c(-c3ccc(CN4CCOCC4)cn3)c2c1 [AZD1080] |  |  |  |  |  |  | inhibition of AMPK kinase activity [4]: more than 50%; inhibition of GSK3β kinase activity [5]: more than 50%
6 | O=C1Nc2ccc(CCN3CCCCC3)cc2/C1=C/c1ccc(CN2CCOCC2)cc1 [Compound 9, (Z)-5-(2-(Piperidin-1-yl)ethyl)-3-(4-(morpholinomethyl)benzylidene)oxindole] | > 10 |  | > 1e-05 |  |  |  | 
7 | CN1CCN(Cc2ccc(/C=C3\C(=O)Nc4ccc(CCN5CCCCC5)cc43)cc2)CC1 [Compound 10, (Z)-5-(2-(Piperidin-1-yl)ethyl)-3-(4-((4-methylpiperazin-1-yl)methyl)benzylidene)oxindole] | > 10 |  | > 1e-05 |  |  |  | 
8 | N#Cc1ccc2c(c1)/C(=C/c1cc(CN3CCOCC3)c[nH]1)C(=O)N2 [Compound 13, (Z)-5-Cyano-3-((4-(morpholinomethyl)-1H-pyrrol-2-yl)methylene)oxindole] | 4.92 | demonstrated AMPK inhibition |  | -0.59 | -0.5892 | -0.38 | EC50 [1]: 4.92 µM; LogEC50 (GraphPad Prism best-fit, GSK3β) [1]: -5.308; HillSlope (GraphPad Prism best-fit, AMPK) [2]: -0.3757; LogEC50 (GraphPad Prism best-fit, AMPK), beyond top dose ([2]; sigmoidal fit, extrapolated beyond 10 μM): -4.728; EC50 ([3]; sigmoidal fit, extrapolated beyond 10 μM, read-out: EC50 (GraphPad Prism best-fit, % activity against AMPK), beyond top dose): 1.87e-05 M; IC50 ([3]; supplement kinase profiling report, read-out: IC50 (M) AMPK(A1/B1/G1)): > 1e-05 M
9 | N#CCCc1ccc2c(c1)/C(=C/c1cc(CN3CCOCC3)c[nH]1)C(=O)N2 [Compound 14, (Z) 5-(2-cyanoethyl)-3-((4-(morpholinomethyl)-1H-pyrrol-2-yl)methylene)oxindole] | > 10 | demonstrated AMPK inhibition | 5.04e-06 |  |  | -0.86 | inhibition of GSK3β kinase activity (in words) ([1]; up to 10 μM, 10 μM [33P]-ATP): did not show detectable GSK3β inhibition; HillSlope (GraphPad Prism best-fit, AMPK) [2]: -0.8552; LogEC50 (GraphPad Prism best-fit, AMPK) [2]: -5.298; EC50 ([3]; sigmoidal dose-response variable slope, Bottom = 0, read-out: EC50 (GraphPad Prism best-fit, % activity against AMPK)): 5.04e-06 M
10 | c1cc(-c2cnn3cc(-c4ccc(OCCN5CCCCC5)cc4)cnc23)ccn1 [Compound C, dorsomorphin] |  |  |  |  |  |  | concentration required to inhibit cellular AMPK activity [6]: > 10 µM
11 | Cn1cc(C2=C(c3cn(CCCSC(=N)N)c4ccccc34)C(=O)NC2=O)c2ccccc21 [RO-31-8220, reference compound] |  |  |  |  |  | -0.77 | % Activity (enzyme activity relative to DMSO controls) ([2]; Ro-31-8220 Conc. 1.02E-09 M): 91.37%; % Activity (enzyme activity relative to DMSO controls) ([2]; Ro-31-8220 Conc. 2.00E-05 M): 5.65%; % Activity (enzyme activity relative to DMSO controls) ([2]; Ro-31-8220 Conc. 2.22E-06 M): 9.47%; % Activity (enzyme activity relative to DMSO controls) ([2]; Ro-31-8220 Conc. 2.47E-07 M): 25.85%; % Activity (enzyme activity relative to DMSO controls) ([2]; Ro-31-8220 Conc. 2.74E-08 M): 71.55%; % Activity (enzyme activity relative to DMSO controls) ([2]; Ro-31-8220 Conc. 3.05E-09 M): 90.55%; % Activity (enzyme activity relative to DMSO controls) ([2]; Ro-31-8220 Conc. 6.67E-06 M): 3.95%; % Activity (enzyme activity relative to DMSO controls) ([2]; Ro-31-8220 Conc. 7.41E-07 M): 12.59%; % Activity (enzyme activity relative to DMSO controls) ([2]; Ro-31-8220 Conc. 8.23E-08 M): 51.73%; % Activity (enzyme activity relative to DMSO controls) ([2]; Ro-31-8220 Conc. 9.14E-09 M): 78.23%; IC50 ([2]; supplement kinase profiling report, 10 μM [33P]-ATP, read-out: IC50 (M) AMPK(A1/B1/G1)): 8.36e-08 M
12 | CNC(=O)c1ccccc1Oc1nc(Nc2cc(OC)c(OC)c(OC)c2)ncc1Br [SBI-0206965] |  |  |  |  |  |  | concentration required to inhibit cellular AMPK activity [6]: > 10 µM
13 | CCN(CC)CCNC(=O)c1c(C)[nH]c(/C=C2\C(=O)Nc3ccc(F)cc32)c1C [Sunitinib, sunitinib, reference compound] |  |  |  | -0.78 | -0.7769 | -0.78 | HillSlope (GraphPad Prism best-fit, AMPK) [2]: -0.7785; LogEC50 (GraphPad Prism best-fit, AMPK) [2]: -7.395; concentration required to inhibit cellular AMPK activity [6]: < 5 µM
